Measurements published in publication PMC9318729 (Toxins, 2022).
Read-outs that look alike come from different tables or passages of the source. No end group written: not given here.

How the values were obtained:
[1] = tested on: A549 cells; test: Effect of pathway inhibitors on Smp24-induced cytotoxicity (MTT and LDH release); format: cell-based, human; conditions: inhibitor pre-incubated 30 min (40 μM Necrostatin-1, 1 μM Cyclosporine A), then 5 μM Smp24 for 12 h
Description: MTT assay was performed to analyze cellular viability as previously reported by us. […] […] After incubation, 10 µL MTT (5 mg/mL) was added before incubation for 4 h at 37 °C in the dark. Subsequently, the cell medium was discarded, and 200 µL DMSO was applied into each well before the absorbance value at 490 nm was determined via the microplate reader (Tecan Company, Männedorf, Switzerland). Cell proliferation was further detected by the BeyoClick™ EdU cell proliferation kit with Alexa Fluor 488 (Beyotime Institute of Biotechnology, Shanghai, China) according to the protocol of manufacturer. In brief, A549 cells (2 × 10^5 cells/well) were grown in 6-well plates and exposed to different concentrations of Smp24 (0, 1.25, 2.5 and 5 μM) for 24 h. Then, the cells were incubated with EdU for 2 h and stained with Alexa Fluor 488 for 30 min in the dark before cell fluorescence intensity was measured by flow cytometry (Becton Dickinson Company, Franklin Lakes, NJ, USA). The experiments had been performed in triplicate.
The LDH release assay was carried out with a commercial kit (Beyotime Institute of Biotechnology, Shanghai, China) following the manufacturer’s manual. […] Thereafter, a microplate reader (Tecan Company, Männedorf, Switzerland) was used to measure the absorbance value at 490 nm. […]

[2] = tested on: A549 xenograft; test: A549 xenograft mice model, in vivo antitumor experiment; parameters: species or system BALB/c nude mice; conditions: 2 mg/kg every three days for 18 days, n = 5
Description: A total of 10 BALB/c nude mice of both sexes (18–20 g, 6 weeks) were acquired from the Laboratory Animal Center of Southern Medical University and were raised in a specific pathogen-free mini-barrier system of the central animal facility of Southern Medical University under controlled conditions (60% humidity, 21 ± 2 °C room temperature, and 12 h light-dark cycle). The experimental protocols (ethical approval number: L2019226 on 11 November 2019) involving animals were approved by the Animal Ethics Committee of Southern Medical University and were implemented in the light of the international regulations for animal research. The animals were placed in an induction chamber, and anesthesia was induced with 5% isoflurane before sacrificed by cervical dislocation.
First, 5 × 10^6 A549 cells with viability over 90% were inoculated subcutaneously into the right flank per mouse. Tumor growth was examined daily by palpation and the diameter was measured with calipers in two planes. Tumor volumes were counted with the following formula: volume (mm^3) = (smallest diameter)^2 × (largest diameter)/2. Then, the mice were randomized into two groups (n = 5 mice/group) for physiological saline and Smp24 treatment. […] The body weight of mice and tumor volumes were recorded daily. […]

[3] = Acute toxicity analysis; format: in vivo, mice; conditions: 5 and 10 mg/kg intraperitoneal, 3 animals per group
Description: To detect the acute toxicity of Smp24 in vivo, the mice were weighed and randomly divided into three groups with 3 animals each, and Smp24 (5 mg/kg and 10 mg/kg) and saline were intraperitoneally administered into mice of different groups. At 48 h after injection, serum and organ tissues from mice were collected for blood biochemical detection and organ weight measurement, respectively.

[4] = tested on: H460 cells; test: MTT cell viability assay; format: cell-based, human; conditions: 24 h treatment
Description: (§1) MTT assay was performed to analyze cellular viability as previously reported by us. Briefly, A549, H3122, PC-9, H460 and MRC-5 cells (1 × 10^4 cells/well) were grown in 96-well plates and exposed to the different concentrations of Smp24 (1.25–20 μM) with 24 h. […] After incubation, 10 µL MTT (5 mg/mL) was added before incubation for 4 h at 37 °C in the dark. Subsequently, the cell medium was discarded, and 200 µL DMSO was applied into each well before the absorbance value at 490 nm was determined via the microplate reader (Tecan Company, Männedorf, Switzerland). Cell proliferation was further detected by the BeyoClick™ EdU cell proliferation kit with Alexa Fluor 488 (Beyotime Institute of Biotechnology, Shanghai, China) according to the protocol of manufacturer. In brief, A549 cells (2 × 10^5 cells/well) were grown in 6-well plates and exposed to different concentrations of Smp24 (0, 1.25, 2.5 and 5 μM) for 24 h. Then, the cells were incubated with EdU for 2 h and stained with Alexa Fluor 488 for 30 min in the dark before cell fluorescence intensity was measured by flow cytometry (Becton Dickinson Company, Franklin Lakes, NJ, USA). The experiments had been performed in triplicate.

[5] = tested on: H3122 cells; test: MTT cell viability assay; format: cell-based, human; conditions: 24 h treatment
Description: as §1

[6] = tested on: PC-9 cells; test: MTT cell viability assay; format: cell-based, human; conditions: 24 h treatment
Description: as §1

[7] = tested on: A549 cells; test: MTT cell viability assay; format: cell-based, human; conditions: 24 h treatment
Description: as §1

[8] = tested on: MRC-5 cells; test: MTT cell viability assay, normal cells; format: cell-based; conditions: 24 h treatment, mean ± SEM (n = 3), read-out: IC50 against MRC-5 normal cells
Description: as §1

[9] = tested on: NSCLC tumor; conditions: subcutaneous injection, cited from earlier work
Description: For most peptides, despite the cogent evidence about their antitumor effects in vitro, their clinical applications have met with major obstacles owing to several issues, including their non-specific cellular cytotoxicity and rapid degradation in the blood. In order to further verify the antitumor effects of Smp24 in vivo, a tumor-burdened experiment was carried out. […] Furthermore, it ...

Compound: CN1C(=O)C(Cc2c[nH]c3ccccc23)NC1=S (stereo not shown) [Necrostatin-1]
- Inhibition of Smp24-induced cytotoxicity and necrosis of A549 [1]: can inhibit

Compound: IWSFLIKAATKLLPSLFGGGKKDS [Smp24]
- Weight changes of body and organs (heart, lung, liver, spleen, kidney) [2]: did not affect
- Animal death after the first day's injection [3]: no animal death
- Heart, lung, liver, spleen and kidney weights ([3]; 48 h after injection): did not change significantly
- Plasma AST, ALT, BUN and Cre ([3]; 48 h after injection): did not change significantly
- Selectivity index, H460 ([4]; normal cells MRC-5): 2.07
- IC50 ([4]; MTT, mean ± SEM (n = 3), read-out: IC50 against H460 cells): ~7.07 µM
- Selectivity index, H3122 ([5]; normal cells MRC-5): 3.16
- IC50 ([5]; MTT, mean ± SEM (n = 3), read-out: IC50 against H3122 cells): ~4.64 µM
- Selectivity index, PC-9 ([6]; normal cells MRC-5): 2.32
- IC50 ([6]; MTT, mean ± SEM (n = 3), read-out: IC50 against PC-9 cells): ~6.34 µM
- Selectivity index, A549 ([7]; normal cells MRC-5): 3.61
- IC50 ([7]; MTT, mean ± SEM (n = 3), read-out: IC50 against A549 cells): ~4.06 µM
- IC50 [8]: ~14.7 µM

Compound: melittin
- Suppression of NSCLC tumor growth ([9]; 0.5 mg/kg): 27%
- Suppression of NSCLC tumor growth ([9]; 10 mg/kg): 61%
